Data on nine compounds can be found in patent US20040138301A1, “Chemical uncouplers for the treatment of obesity” (priority 2002, published 2004).

For one data set, the system named is HEP-G2 cells. Briefly: cells. The following applies: for EC50 / Emax / EC (Emax): Homo sapiens; for EC50: HepG2, 3 h, read-out: HEP-G2 EC50, HEP-G2 cells, glucose utilisation, 3 hours incubation; for Emax: HepG2, read-out: HEP-G2 Emax (% of FCCP), HEP-G2 cells, maximal stimulation relative to FCCP; for EC (Emax): HepG2, read-out: HEP-G2 Emax (μM), HEP-G2 cells, concentration at which Emax is achieved (CEmax). In a few lines: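 HEP-G2 cells were treated with compound for 3 h at 37 °C in MEM/0.5% BSA containing 10 μCi/ml D-(3-^3H(N))-glucose, then lysed with TCA; ^3H-water released via the respiratory chain was recovered by evaporation at 50 °C and counted. Values are corrected for non-specific and basal counts, expressed as % of maximal FCCP or DNP stimulation, and EC50 is from a variable-slope sigmoidal fit.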

The next data set relates to isolated mitochondria. The data set is described as follows: Assay (II): effect of chemical uncouplers on mitochondrial respiration using isolated mitochondria (oxygen consumption). It counts as biochemical. On the procedure:
Assay (II)—The Effect of Chemical Uncouplers on Mitochondrial Respiration Using Isolated Mitochondria.
This assay is used to investigate if the increase in glucose utilisation caused by the test compounds observed in the glucose utilisation assay is due to an increase in the respiration of the mitochondria. This is done by measuring oxygen consumption in isolated mitochondria.
A Clark oxygen electrode is used to determine the oxygen consumption. The isolated mitochondria are added to medium containing oxygen and nutrients (e.g. Succinate) and the rate of oxygen consumptions is measured, when stabilized a small amount of ADP is added to increase the respiration and an increase in the rate of oxygen consumption is measured. When the rate of oxygen consumption again has stabilized the test compound is added and a further increase in oxygen consumption is seen. This experiment is done with and without the addition of oligomycin which is an inhibitor of the ATP-synthase. Finally, the test compound is examined without adding ADP. If the test compound stimulates the rate of oxygen consumption in all setups, it is regarded as a chemical uncoupler.

With `Cc1c(Br)cc(C(C)(C)C)c(O)c1C(=O)Nc1ccc([N+](=O)[O-])cc1C(F)(F)F` [Example 58, 3-Bromo-5-Tert-Butyl-6-Hydroxy-2-Methyl-N-(4-Nitro-2-Trifluoromethyl-Phenyl)-Benzamide], in the data set with HEP-G2 cells, the EC50 (usually the concentration that produces a half-maximal response) was 30 nM; the Emax (commonly the maximal effect, on the per cent scale that the assay sets) came out at 100%; the EC (Emax) was found to be 0.1 µM. Moreover, in the data set on isolated mitochondria, the “Mito State-4” value is listed as “Ok”.

As for `CC(=C(C#N)C#N)c1cc(C(C)(C)C)c(O)c(C(C)(C)C)c1` [Example 75, 2-[1-(3,5-Di-Tert-Butyl-4-Hydroxy-Phenyl)-Ethylidene]-Malononitrile], in the data set with HEP-G2 cells, the EC50 is 360 nM, the Emax came out at 120% and the EC (Emax) was 30 µM. Moreover, in the data set on HEP-G2 cells (human, 3 h), the “HEP-G2 Tox” value is “Tox 0.3 mM”. The “Mito State-4” value in the data set with isolated mitochondria is given as “Ok”.

With `Cc1c(Cl)cc(C(C)(C)C)c(O)c1C(=O)Nc1ccc([N+](=O)[O-])cc1C(F)(F)F` [Example 50, 3-Tert-Butyl-5-Chloro-2-Hydroxy-6-Methyl-N-(4-Nitro-2-Trifluoromethyl-Phenyl)-Benzamide], in the data set on HEP-G2 cells, the concentration giving a half-maximal response (EC50) turned out to be 30 nM, the maximal response (Emax) worked out at 82% and the EC (Emax) is 0.1 µM. Besides, the “Mito State-4” value in the data set on isolated mitochondria was “Ok”.

Turning to `N#CC(C#N)=Cc1c(Cl)[nH]c2ccccc12` [Example 34, 2-(2-Chloro-1H-Indol-3-Ylmethylene)-Malononitrile], in the data set on HEP-G2 cells, the EC50 was 1400 nM, the maximal effect (Emax) was 80% and the EC (Emax) came out at 10 µM. The “Mito State-4” value with isolated mitochondria is listed as “Ok”.

For the compound `CC(C)(C)c1cc(/C=C(\C#N)c2ccc([N+](=O)[O-])cc2)cc(C(C)(C)C)c1O` [Example 77, 3-(3,5-Di-Tert-Butyl-4-Hydroxy-Phenyl)-2-(4-Nitro-Phenyl)-Acrylonitrile], in the data set with HEP-G2 cells, the concentration for a half-maximal effect (EC50) was determined as 310 nM, the Emax turned out to be 100% and the EC (Emax) came to 3 µM. Besides, the “Mito State-4” value in the data set with isolated mitochondria is “Ok”.

Turning to `N#CC(C#N)=Cc1c[nH]c2ccc(Cl)cc12` [Example 30, 2-((5-Chloro-1H-Indol-3-Yl)Methylene)Malononitrile], in the data set with HEP-G2 cells, the concentration giving a half-maximal response (EC50) amounted to 19500 nM, the maximum response (Emax) came to 60% and the EC (Emax) is 100 µM. Moreover, the “Mito State-4” value with isolated mitochondria was “Ok”.

For the compound `Cc1c(Br)cc(C(C)(C)C)c(O)c1C(=O)Nc1ccc([N+](=O)[O-])cc1Cl` [Example 37, 3-Bromo-5-Tert-Butyl-N-(2-Chloro-4-Nitro-Phenyl)-6-Hydroxy-2-Methyl-Benzamide], in the data set with HEP-G2 cells, the EC50 was determined as 35 nM, the Emax was 100% and the EC (Emax) was 1 µM. For the same compound, the “Mito State-4” value with isolated mitochondria was “Ok”.

With `Cc1cc(C(C#N)c2ccc(Cl)cc2)c(Cl)cc1NC(=O)c1c(C)c(Br)cc(C(C)(C)C)c1O` (stereo not shown) [Example 56, 3-Bromo-5-Tert-Butyl-N-{5-Chloro-4-[(4-Chloro-Phenyl)-Cyano-Methyl]-2-Methyl-Phenyl}-6-Hydroxy-2-Methyl-Benzamide], in the data set on HEP-G2 cells, the EC50 came to 6600 nM, the maximal effect (Emax) is 100% and the EC (Emax) amounted to 100 µM. Also, the “Mito State-4” value in the data set on isolated mitochondria is given as “Ok”.

On to `N#CC(C#N)=NNc1ccc(OC(F)(F)F)cc1` [Example 27, Carbonylcyanide p-Trifluoromethoxy-Phenylhydrazone, reference compound], for which, in the data set with HEP-G2 cells, the EC50 was 3000 nM, the Emax was 100% and the EC (Emax) was determined as 30 µM. In addition, the “Mito State-4” value in the data set with isolated mitochondria is reported as “Ok”.
